# Data reported in patent US20220354834A1, “METHODS AND MATERIALS FOR TREATING NEUROTOXICITY” (Cavion, Inc., priority 2019, published 2022).
# How the values were obtained:
# [1] = CIPN-reversal study: body weight, tolerability, mortality; assay type: in vivo
# Procedure: Rats were housed 2-3 per cage under similar environmental conditions as nude mice in the interference study.
# (§1) Wistar female rats (n=52) (Envigo, Correzzano, Italy) at 10-11 weeks of age were utilized. The study was divided into 2 phases of 4 weeks each. […] Body weight was measured periodically during phase 1 from baseline (day 1) to day 28. At baseline and conclusion of phase 1 (day 28), nerve conduction velocity (NCV) was performed on caudal and sciatic nerves and Dynamic Aesthesiometer Test (DAT) measured mechanical threshold (MT) of the hind paw. […] Body weight was measured periodically from baseline (day 28) to day 56 (termination). NCV and MT were measured in all 4 groups at baseline and on day 35 and 56. […] At termination, sciatic nerves were obtained for β-tubulin polymerization and skin samples were procured for intraepidermal nerve fiber (IENF) density and histopathology.
# [2] = In vivo anti-tumor (interference) study: body weight; design: species or system athymic nude mouse; settings: 1 mg/kg BTZ in combination with 30 mg/kg CX-8998 orally once daily, 28 days
# Excerpt: (§2) Care and husbandry of mice complied with USDA (U.S. Department of Agriculture) Animal Welfare Act and START IACUC (Institutional Animal Care and Use Committee) regulations. The protocol was reviewed and approved by START IACUC. Mice were individually housed in Sealsafe® Plus ventilated cages (Techniplast, West Chester, Pa., USA) and fed with Teklad 2919 (Envigo, Somerset, N.J., USA), irradiated, 19% protein, 9% fat and 4% fiber mouse chow. Mice were maintained under controlled environmental conditions (22+/−2° C. temperature, 55+/−10% relative humidity and 12-hour light/dark cycle (7 a.m.-7 p.m.).
# (§3) South Texas Accelerated Research Therapeutics (START) (San Antonio, Tex., USA) conducted this study. […] The 30 mg/kg dose was tolerated in preclinical safety studies and anticipated to result in exposures in excess of the therapeutic range for 28 days. Body weight, TV and animal observations were collected twice per week to day 18 (termination) for vehicle control mice and twice per week to day 28 (termination) for each of the other 3 groups. Mean±SD body weight and TV were analyzed with Kruskal-Wallis and Dunn multiple comparison test at day 18 and with Mann Whitney test at day 28 with statistical significance at p<0.05.
# [3] = test system: RPMI-8226 human myeloma xenografts; assay: In vivo BTZ and combination (BTZ and CX-8998) anti-tumor (interference) study, tumor volume; design: species or system athymic nude mouse
# Excerpt: as §2, §3
# [4] = test system: sciatic nerves (BTZ-induced CIPN); assay: CIPN-reversal study: sciatic nerve conduction velocity; assay type: in vivo, Wistar rat
# Procedure: as §1
# NCV (meters/second) was obtained from caudal and sciatic nerves with an electromyography tool (Myto 2, ABN Neuro, Firenze, Italy). Caudal NCV was measured by placement of recording needle electrodes distally in the tail with stimulating needle electrodes 5 cm and 10 cm proximal to recording point. Peak latencies of potentials recorded at the 2 sites after nerve stimulation were determined and NCV was calculated. Sciatic NCV was determined by placement of needle recording electrodes near ankle bone and stimulating electrodes close to thigh. Peak latencies were recorded similar to caudal nerve and NCV was calculated. NCV was performed under standard conditions in a temperature-controlled facility (22±2° C.) and rats were under isoflurane anesthesia with monitoring of vital signs.
# [5] = test system: hind paw mechanical allodynia (BTZ-induced CIPN); assay: CIPN-reversal study: Dynamic Aesthesiometer Test, mechanical threshold; assay type: in vivo, Wistar rat; settings: P > 0.05 ns
# Procedure: as §1
# MT was assessed with the DAT device (Model 37450, Ugo Basile Biological Instruments, Comerio, Italy). After acclimation, a servo-controlled pointed metallic filament (0.5 mm diameter) was placed on plantar surface of the hind paw and exerted a progressive punctate pressure up to 50 grams within 20 seconds. The pressure elicited a voluntary hind paw withdrawal response that was recorded and represented MT index. MT was collected alternatively on each side every 2 minutes on 3 occasions to yield a mean value. Mean MT values represented maximum pressure (grams) tolerated by each rat. Exposure of each animal to mechanical stimulus was limited to 30 seconds.
# [6] = BTZ vs BTZ+ CX-8998 3 mg/kg, P > 0.05 ns
# [7] = BTZ+ CX-8998 3 mg/kg vs BTZ+ CX-8998 10 mg/kg, P > 0.05 ns
# [8] = BTZ+ CX-8998 3 mg/kg vs BTZ+ CX-8998 30 mg/kg, P > 0.05 ns
# [9] = BTZ+ CX-8998 10 mg/kg vs BTZ+ CX-8998 30 mg/kg, P > 0.05 ns
# [10] = CTRL vs BTZ+ CX-8998 3 mg/kg, P > 0.05 ns
# [11] = CTRL vs BTZ+ CX-8998 10 mg/kg, P > 0.05 ns
# [12] = CTRL vs BTZ+ CX-8998 30 mg/kg, P > 0.05 ns
# [13] = BTZ+ CX-8998 3 mg/kg vs BTZ+ CX-8998 30 mg/kg
structure (smiles),measurement,setting,value
"CC(C)c1ccc(CC(=O)N[C@H](C)c2ccc(OCC(F)(F)F)cn2)cc1 [CX-8998, (R)-2-(4-Isopropylphenyl)-N-(1-(5-(2,2,2-Trifluoroethoxy)pyridin-2-yl)ethyl)acetamide]",tolerability,[1]; BTZ in combination with CX-8998,well tolerated
same,mortality (animals),[1]; one each in combinations of BTZ with 3 mg/kg and 10 mg/kg CX-8998,two
same,body weight change,"[1]; weeks 5 and 8, BTZ in combination with 3, 10 and 30 mg/kg CX-8998",not significantly different
same,body weight,[2],transient body weight loss during first two weeks of treatment and no weight gain at day 18 and 28
same,"TUMOR GROWTH DAY 18, Difference in rank sum (Dunn's Multiple Comparison Test)","[3]; BTZ vs BTZ+ CX-8998, P > 0.05 ns",−3.000
same,"TUMOR GROWTH DAY 18, Difference in rank sum (Dunn's Multiple Comparison Test)","[3]; Vehicle Control vs BTZ+ cx-8998, P < 0.05 *",10.13
same,"NCV OF SCIATIC NERVE (5 weeks), Difference in rank sum (Dunn's Multiple Comparison Test)",[4]; [6],6.667
same,"NCV OF SCIATIC NERVE (8 weeks), Difference in rank sum (Dunn's Multiple Comparison Test)",[4]; [6],−10.12
same,"NCV OF SCIATIC NERVE (8 weeks), Difference in rank sum (Dunn's Multiple Comparison Test)","[4]; BTZ vs BTZ+ CX-8998 10 mg/kg, P < 0.05 *",−19.26
same,"NCV OF SCIATIC NERVE (5 weeks), Difference in rank sum (Dunn's Multiple Comparison Test)","[4]; BTZ vs BTZ+ CX-8998 10 mg/kg, P > 0.05 ns",2.583
same,"NCV OF SCIATIC NERVE (8 weeks), Difference in rank sum (Dunn's Multiple Comparison Test)","[4]; BTZ vs BTZ+ CX-8998 30 mg/kg, P < 0.05 *",−19.77
same,"NCV OF SCIATIC NERVE (5 weeks), Difference in rank sum (Dunn's Multiple Comparison Test)","[4]; BTZ vs BTZ+ CX-8998 30 mg/kg, P > 0.05 ns",5.250
same,"NCV OF SCIATIC NERVE (5 weeks), Difference in rank sum (Dunn's Multiple Comparison Test)",[4]; [7],−4.083
same,"NCV OF SCIATIC NERVE (8 weeks), Difference in rank sum (Dunn's Multiple Comparison Test)",[4]; [7],−9.136
same,"NCV OF SCIATIC NERVE (5 weeks), Difference in rank sum (Dunn's Multiple Comparison Test)",[4]; [8],−1.417
same,"NCV OF SCIATIC NERVE (8 weeks), Difference in rank sum (Dunn's Multiple Comparison Test)",[4]; [8],−9.652
same,"NCV OF SCIATIC NERVE (5 weeks), Difference in rank sum (Dunn's Multiple Comparison Test)",[4]; [9],2.667
same,"NCV OF SCIATIC NERVE (8 weeks), Difference in rank sum (Dunn's Multiple Comparison Test)",[4]; [9],−0.5152
same,"NCV OF SCIATIC NERVE (5 weeks), Difference in rank sum (Dunn's Multiple Comparison Test)",[4]; [10],8.917
same,"NCV OF SCIATIC NERVE (8 weeks), Difference in rank sum (Dunn's Multiple Comparison Test)",[4]; [10],11.98
same,"NCV OF SCIATIC NERVE (5 weeks), Difference in rank sum (Dunn's Multiple Comparison Test)",[4]; [11],4.833
same,"NCV OF SCIATIC NERVE (8 weeks), Difference in rank sum (Dunn's Multiple Comparison Test)",[4]; [11],2.848
same,"NCV OF SCIATIC NERVE (5 weeks), Difference in rank sum (Dunn's Multiple Comparison Test)",[4]; [12],7.500
same,"NCV OF SCIATIC NERVE (8 weeks), Difference in rank sum (Dunn's Multiple Comparison Test)",[4]; [12],2.333
same,"DYNAMIC TEST 5 WEEKS, Difference in rank sum (Dunn's Multiple Comparison Test)",[5]; BTZ vs BTZ+ CX-8998 3 mg/kg,−13.99
same,"DYNAMIC TEST 8 WEEKS, Difference in rank sum (Dunn's Multiple Comparison Test)",[5]; BTZ vs BTZ+ CX-8998 3 mg/kg,−15.63
same,"DYNAMIC TEST 5 WEEKS, Difference in rank sum (Dunn's Multiple Comparison Test)",[5]; BTZ vs BTZ+ CX-8998 10 mg/kg,−0.7411
same,"DYNAMIC TEST 8 WEEKS, Difference in rank sum (Dunn's Multiple Comparison Test)",[5]; BTZ vs BTZ+ CX-8998 10 mg/kg,−6.500
same,"DYNAMIC TEST 5 WEEKS, Difference in rank sum (Dunn's Multiple Comparison Test)",[5]; BTZ vs BTZ+ CX-8998 30 mg/kg,−6.679
same,"DYNAMIC TEST 8 WEEKS, Difference in rank sum (Dunn's Multiple Comparison Test)",[5]; BTZ vs BTZ+ CX-8998 30 mg/kg,−9.688
same,"DYNAMIC TEST 8 WEEKS, Difference in rank sum (Dunn's Multiple Comparison Test)",[5]; BTZ+ CX-8998 3 mg/kg vs BTZ+ CX-8998 10 mg/kg,9.125
same,"DYNAMIC TEST 5 WEEKS, Difference in rank sum (Dunn's Multiple Comparison Test)",[5]; [13],7.313
same,"DYNAMIC TEST 8 WEEKS, Difference in rank sum (Dunn's Multiple Comparison Test)",[5]; [13],5.938
same,"DYNAMIC TEST 5 WEEKS, Difference in rank sum (Dunn's Multiple Comparison Test)",[5]; BTZ+ CX-8998 10 mg/kg vs BTZ+ CX-8998 30 mg/kg,−5.938
